# Patent US7049289B1, “Labelled glutamine and lysine analogues” (Amersham PLC, priority 1998, dated 2006)
# Entries after “also recorded” stand apart in the source; their conditions may differ. Where two headings read alike, the source gives them in different places. The star is where a group is joined. Adamantane1carbonyl = O=C(C12CC3CC(CC(C3)C1)C2)*
# Legend:
# [1] = target: T1, fibrin (in vitro human plasma clot) (Homo sapiens, UniProt P02671+P02675+P02679); assay: Incorporation into human plasma clots in vitro; assay type: biochemical; details: for % specific uptake: % retained (with thrombin) - % retained (no thrombin); for % retained (no thrombin): control without thrombin and calcium chloride (non-specific binding); for % retained (with thrombin): human plasma clot, 60 minutes, ca. 20° C.
# T1 construct: about 400 μl of human plasma containing the radiolabelled substrate; from tissue; host or cells: human plasma, clotted in vitro with added thrombin and calcium chloride
# T1 sequence (P02671 20-644 isoform P02671-2 limits assumed): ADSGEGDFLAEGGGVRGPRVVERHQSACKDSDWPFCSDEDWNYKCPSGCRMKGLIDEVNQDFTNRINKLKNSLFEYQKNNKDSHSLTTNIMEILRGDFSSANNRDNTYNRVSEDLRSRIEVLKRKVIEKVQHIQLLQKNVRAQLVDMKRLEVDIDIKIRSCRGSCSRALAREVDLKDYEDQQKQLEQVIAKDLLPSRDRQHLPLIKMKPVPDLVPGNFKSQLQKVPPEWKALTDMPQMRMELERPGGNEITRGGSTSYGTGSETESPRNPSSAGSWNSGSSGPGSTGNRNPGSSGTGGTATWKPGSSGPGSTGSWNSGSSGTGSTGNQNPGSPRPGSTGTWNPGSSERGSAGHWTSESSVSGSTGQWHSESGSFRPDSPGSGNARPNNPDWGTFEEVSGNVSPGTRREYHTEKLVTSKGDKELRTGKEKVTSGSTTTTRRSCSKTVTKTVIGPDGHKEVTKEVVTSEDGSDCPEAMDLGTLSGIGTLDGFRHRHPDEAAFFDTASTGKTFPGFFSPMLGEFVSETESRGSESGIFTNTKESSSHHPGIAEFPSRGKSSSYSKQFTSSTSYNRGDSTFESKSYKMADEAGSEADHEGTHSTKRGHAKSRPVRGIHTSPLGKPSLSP
# T1 sequence (P02675 45-491 limits assumed): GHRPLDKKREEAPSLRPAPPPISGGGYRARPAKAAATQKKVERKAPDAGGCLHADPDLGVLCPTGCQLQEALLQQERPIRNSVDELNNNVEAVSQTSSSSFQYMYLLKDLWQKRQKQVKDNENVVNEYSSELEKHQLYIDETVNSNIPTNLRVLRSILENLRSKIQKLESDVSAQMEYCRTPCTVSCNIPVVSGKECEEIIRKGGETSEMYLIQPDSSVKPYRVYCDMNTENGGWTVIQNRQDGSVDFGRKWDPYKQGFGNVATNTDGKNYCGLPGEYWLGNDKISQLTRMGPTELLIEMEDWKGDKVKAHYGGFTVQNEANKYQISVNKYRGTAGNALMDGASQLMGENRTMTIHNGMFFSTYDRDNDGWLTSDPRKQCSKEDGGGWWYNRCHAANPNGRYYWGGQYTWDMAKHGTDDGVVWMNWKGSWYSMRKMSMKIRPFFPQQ
# T1 sequence (P02679 27-437 isoform P02679-2 limits assumed): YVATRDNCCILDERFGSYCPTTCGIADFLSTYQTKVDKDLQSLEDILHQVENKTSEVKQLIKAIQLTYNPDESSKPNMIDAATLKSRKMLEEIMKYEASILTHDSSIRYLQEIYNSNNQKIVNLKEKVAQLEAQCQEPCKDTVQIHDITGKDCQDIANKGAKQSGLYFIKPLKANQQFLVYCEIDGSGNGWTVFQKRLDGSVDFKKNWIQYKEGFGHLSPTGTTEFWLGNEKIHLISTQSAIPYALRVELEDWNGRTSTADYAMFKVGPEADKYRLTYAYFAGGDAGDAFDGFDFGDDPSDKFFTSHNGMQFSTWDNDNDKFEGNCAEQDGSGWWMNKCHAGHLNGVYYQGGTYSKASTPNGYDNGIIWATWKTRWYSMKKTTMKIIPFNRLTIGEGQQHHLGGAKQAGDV
# Procedure, shortened: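 Fibrin incorporation is expressed as the fraction of total radioactivity retained with filtered clots, corrected for non-specific binding in controls lacking thrombin and calcium chloride. Clotting was induced by thrombin in Ca2+-containing Tris-buffered saline (pH 7.5) with human plasma carrying about 10 kBq/ml tracer, for 60 min at ambient temperature before EDTA quench.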
# [2] = Incorporation into clots induced in a rat model (rat inferior vena cava model); assay type: in vivo, rat (Male Wistar); details: for % id/g (clot) / Rel. Conc. (cpm/g of clot by dose/g animal): sacrificed after 60 min
# Procedure, shortened: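 Male Wistar rats (250–350 g) under 15% urethane anaesthesia, with the vena cava isolated by laparotomy. Compounds given 5 min (fresh clot) or 60 min (aged clot) after clot induction; clot, blood, lung and heart removed 60 min later, weighed and counted. Uptake expressed as cpm/g clot per dose/g animal and as clot-to-background tissue ratio.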
# [3] = human, plasma, 2 h
# Procedure: (§1) To a portion of compound (50 μl, 10 MBq/ml) was added an equal volume of plasma (rat or human) or saline. The mixtures were incubated at 37° C. and the stability measured by HPLC (system C) at 0, 30 and 120 minutes. The saline dilution acted as a control.
# [4] = rat, plasma, 2 h
# Procedure: as §1
# [5] = Aged Clots: injected 60 min post-induction
# [6] = Fresh Clots: injected 5 min post-induction
% specific uptake [1] [%],% retained (no thrombin) [1] [%],% retained (with thrombin) [1] [%],in vitro clot uptake (in words) [1],Substance,Clot/blood ([2]; Aged Clots),Clot/heart ([2]; Aged Clots),Clot/liver ([2]; Aged Clots),Clot/lung ([2]; Aged Clots),"% id/g (clot) [2, 5] [% id/g]","Rel. Conc. (cpm/g of clot by dose/g animal) [2, 5]",Clot/blood ([2]; Fresh Clots),Clot/heart ([2]; Fresh Clots),Clot/liver ([2]; Fresh Clots),Clot/lung ([2]; Fresh Clots),"% id/g (clot) [2, 6] [% id/g]","Rel. Conc. (cpm/g of clot by dose/g animal) [2, 6]",% intact at 120 mins [3] [%],% intact at 120 mins [4] [%],RC (in vivo clot uptake) [2]
21.0,0.1,22.0,,Ac-NQEQVSPYTLLKG-Hynic (also: 99mTc complex) [^99mTc-Cmpd 4],8,19,19,10,1.2 ± 1.1,4.1 ± 4.0,6,15,20,8,2.0 ± 0.6,6.5 ± 2.0,>90,>90,
40.6,0.7,41.3,,Ac-NQEQVG-Pn44 [^99mTc-Cmpd 17],3,7,3,5,0.8 ± 0.1,2.7 ± 0.6,7,18,5,12,1.2 ± 0.7,3.7 ± 2.3,>90,>90,
13.8,0.3,14.1,,"Cyclo-[NQEQVSPYTLLKG] (cyclo(NQEQVSPYTLLKG); also: 123I label, place not given here) [^123I-Cmpd 44]",0.9,1,1,2,0.5 ± 0.03,1.2 ± 0.1,0.9,1,2,1.5,0.4 ± 0.1,1.1 ± 0.2,,,

# Further lines, the substance ahead of its results:
Substance,% specific uptake [1] [%],% retained (no thrombin) [1] [%],% retained (with thrombin) [1] [%],in vitro clot uptake (in words) [1],Clot/blood ([2]; Aged Clots),Clot/heart ([2]; Aged Clots),Clot/liver ([2]; Aged Clots),Clot/lung ([2]; Aged Clots),"% id/g (clot) [2, 5] [% id/g]","Rel. Conc. (cpm/g of clot by dose/g animal) [2, 5]",Clot/blood ([2]; Fresh Clots),Clot/heart ([2]; Fresh Clots),Clot/liver ([2]; Fresh Clots),Clot/lung ([2]; Fresh Clots),"% id/g (clot) [2, 6] [% id/g]","Rel. Conc. (cpm/g of clot by dose/g animal) [2, 6]",% intact at 120 mins [3] [%],% intact at 120 mins [4] [%],RC (in vivo clot uptake) [2]
Ac-NQEAVSPYTLLKG-Pn44 (also: 99mTc complex) [^99mTc-Cmpd 12],34.5,0.3,34.8,,19,75,7,15,4.1 ± 1.2,11.2 ± 3.4,20,31,8,17,7.3 ± 4.1,19.8 ± 11.0,>90,>90,
Ac-NQG-Pn44 [^99mTc-Cmpd 16],12.4,0.1,12.5,significant reduction in uptake,,,,,,,3,8,0.8,3,0.3 ± 0.1,1.0 ± 0.2,>90,>90,
Ac-NAEAVSPYTLLKG-Pn216 (also: 99mTc complex) [^99mTc-Cmpd 14],2.8,0.5,3.3,significant reduction in uptake; also recorded: large drop in uptake,1.4,2,0.7,1.3,0.6 ± 0.4,1.4 ± 0.8,2,3,0.7,1.5,0.5 ± 0.1,1.2 ± 0.2,,,
Adamantoyl-NQEQVSPYTLLKG-Pn216 (Adamantane1carbonyl-NQEQVSPYTLLKG-Pn216; also: 99mTc complex) [^99mTc-Cmpd 11],66.9,1.2,68.1,,5,13,4,6,0.4 ± 0.3,1.2 ± 0.8,10,24,11,11,1.1 ± 0.4,3.3 ± 1.1,,,
Ac-NQEQVSPYTLLKG-(PEG)10k-Pn216 (Ac-NQEQVSPYTLLKG-{PEG 10k-Pn216}; also: 99mTc complex) [^99mTc-Cmpd 41],37.4,7.1,44.5,,1,13,4,6,0.4 ± 0.1,1.1 ± 0.3,3,6,8,4,0.7 ± 0.1,2.2 ± 0.3,,,
Ac-N—CH2NH2-QEQVSP(D-Y)TLL(D-K)G-Pn216 [^99mTc-Cmpd 34],5.4,0.1,5.5,significant reduction in uptake,3,,6,,0.4 ± 0.1,1.4 ± 0.4,2,6,8,3,0.5 ± 0.2,1.8 ± 0.5,,,
"NQEQVSPYTLLK [^123I-Cmpd 1, reference compound]",12.6,2.0,14.6,,,,,,,,1,,,,0.5 ± 0.1,1.6 ± 0.4,,,1.5
